According to US20240254087A1, “SELECTIVE, PARTIAL, AND ARRESTIN-BIASED 5-HT2A AGONISTS WITH UTILITY IN VARIOUS DISORDERS” (Saint Joseph's University, priority 2021, published 2024):
Like-named read-outs stand apart in the source and are kept apart here.

Tests used:
5-HT2A [1] = biological target: T1, 5-HT2A (Homo sapiens, UniProt P28223); experiment: cell-based; parameters: expressed in transfected cells; host or cells: HEK293T, transient; conditions: for Emax: read-out: 5-HT2A β-arrestin Emax (% 5-HT), BRET, mean ± SEM; for EC50: read-out: 5-HT2A β-arrestin recruitment pEC50 (converted)
T1 sequence (P28223 whole entry): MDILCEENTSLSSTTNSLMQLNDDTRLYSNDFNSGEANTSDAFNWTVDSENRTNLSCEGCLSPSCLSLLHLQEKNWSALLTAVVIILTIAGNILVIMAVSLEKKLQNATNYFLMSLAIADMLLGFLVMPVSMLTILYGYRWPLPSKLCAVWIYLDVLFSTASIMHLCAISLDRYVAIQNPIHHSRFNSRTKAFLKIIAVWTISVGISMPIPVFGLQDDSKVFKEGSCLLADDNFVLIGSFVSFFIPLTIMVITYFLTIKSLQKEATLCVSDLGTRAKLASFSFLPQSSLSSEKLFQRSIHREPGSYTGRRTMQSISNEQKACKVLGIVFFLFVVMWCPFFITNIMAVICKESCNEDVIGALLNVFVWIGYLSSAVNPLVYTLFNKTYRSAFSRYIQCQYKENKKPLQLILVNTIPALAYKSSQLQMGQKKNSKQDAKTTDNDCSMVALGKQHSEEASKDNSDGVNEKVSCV
Protocol: (§1) After at least 18-24 hours, transfected cells were plated in poly-lysine coated 96-well white clear bottom cell culture plates in DMEM containing 1% dialyzed FBS at a density of 25-40,000 cells in 200 μL per well and incubated overnight. After approximately 20-24 hours, media was decanted and cells were washed with 60 μL of drug buffer (1×HBSS, 20 mM HEPES, pH 7.4), followed by 60 μL of drug buffer and pre-incubated in a humidified atmosphere at 37° C. before receiving drug stimulation. Drug stimulation was induced by adding 30 μL of a solution of drug (3X) diluted in McCorvy buffer (1×HBSS, 20 mM HEPES, pH 7.4, supplemented with 0.3% BSA fatty acid free, 0.03% ascorbic acid) and plates were incubated at the indicated time and temperature. Fifteen minutes before reading, 10 μL of the RLuc substrate, either coelenterazine h for β-Arrestin recruitment BRET^1 or coelenterazine 400a for Gq dissociation BRET^2 (Prolume/Nanolight, 5 μM final concentration) was addedper well. […] The BRET ratios of fluorescence/luminescence were calculated per well and were plotted as a function of drug concentration using Graphpad Prism 8 (Graphpad Software Inc., San Diego, CA).

5-HT2B = 5-HT2B (Homo sapiens, UniProt P41595); experiment: BRET Gq dissociation, 5-HT2B; format: cell-based; parameters: expressed in transfected cells; host or cells: HEK293T, transient
5-HT2B, sequence (P41595 whole entry): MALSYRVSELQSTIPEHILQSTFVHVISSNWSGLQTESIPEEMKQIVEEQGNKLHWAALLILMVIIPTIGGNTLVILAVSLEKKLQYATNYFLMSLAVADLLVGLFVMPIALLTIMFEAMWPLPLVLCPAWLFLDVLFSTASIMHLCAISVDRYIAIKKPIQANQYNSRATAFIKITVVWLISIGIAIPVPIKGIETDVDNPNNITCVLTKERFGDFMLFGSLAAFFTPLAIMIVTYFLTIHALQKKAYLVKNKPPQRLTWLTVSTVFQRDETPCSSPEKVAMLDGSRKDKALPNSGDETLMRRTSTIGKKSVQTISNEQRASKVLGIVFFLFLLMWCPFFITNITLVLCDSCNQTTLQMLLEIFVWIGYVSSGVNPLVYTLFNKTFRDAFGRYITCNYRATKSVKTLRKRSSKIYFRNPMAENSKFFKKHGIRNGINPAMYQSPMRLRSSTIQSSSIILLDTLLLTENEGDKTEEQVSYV
Protocol: After at least 18-24 hours, transfected cells were plated in poly-lysine coated 96-well white clear bottom cell culture plates in DMEM containing 1% dialyzed FBS at a density of 25-40,000 cells in 200 μL per well and incubated overnight. After approximately 20-24 hours, media was decanted and cells were washed with 60 μL of drug buffer (1×HBSS, 20 mM HEPES, pH 7.4), followed by 60 μL of drug buffer and pre-incubated in a humidified atmosphere at 37° C. before receiving drug stimulation. Drug stimulation was induced by adding 30 μL of a solution of drug (3X) diluted in McCorvy buffer (1×HBSS, 20 mM HEPES, pH 7.4, supplemented with 0.3% BSA fatty acid free, 0.03% ascorbic acid) and plates were incubated at the indicated time and temperature. Fifteen minutes before reading, 10 μL of the RLuc substrate, either coelenterazine h for β-Arrestin recruitment BRET^1 or coelenterazine 400a for Gq dissociation BRET^2 (Prolume/Nanolight, 5 μM final concentration) was addedper well. Plates were read for luminescence at 485 nm and fluorescent eYFP emission at 530 nm for BRET^1 and at 400 nm and fluorescent GFP2 emission at 510 nm for BRET2 at 1 second per well using a Mithras LB940 (Berthold). The BRET ratios of fluorescence/luminescence were calculated per well and were plotted as a function of drug concentration using Graphpad Prism 8 (Graphpad Software Inc., San Diego, CA).

5-HT2A [2] = biological target: T1, 5-HT2A; experiment: cell-based; parameters: expressed in transfected cells; host or cells: HEK293T, transient; conditions: for Emax: read-out: 5-HT2A Gq Emax (% 5-HT), BRET, mean ± SEM; for EC50: read-out: 5-HT2A Gq dissociation pEC50 (converted)
Protocol: as §1

male C57BL/6J mice = experiment: Head-twitch response (HTR) in mice; format: in vivo, mouse; conditions: for ED50: Mus musculus, read-out: HTR ED50 mg/kg (95% CI), SC, except DOI and 25D-NBOMe IP
Protocol: Male C57BL/6J mice (6-8 weeks old) from Jackson Labs (Bar Harbor, ME, USA) were used for the behavioral experiments. The mice were housed on a reversed light-dark cycle (lights on at 1900 h, off at 0700 h) in an AAAC-approved vivarium at the University of California San Diego. Mice were housed up to four per cage in a climate-controlled room and with food and water provided ad libitum except during behavioral testing. Testing was performed between 1000 and 1800 h (during the dark phase of the light-dark cycle). The studies were conducted in accordance with National Institutes Health (NIH) guidelines and were approved by the University of California San Diego Institutional Animal Care and Use Committee.
The mice were allowed to recover from the magnet implantation surgeries for at least 1 week prior to behavioral testing. HTR experiments were conducted in a well-lit room, and the mice were allowed to habituate to the room for at least 1 h prior to testing. Head twitches was assessed in a 12-cm diameter glass cylinder surrounded by a magnetometer coil. Coil voltage was low-pass filtered (2 kHz), amplified, and digitized (20-kHz sampling rate) using a Powerlab/8SP with LabChart v 7.3.2 (ADInstruments, Colorado Springs, CO, USA). […] HTR counts were analyzed using one-way ANOVAs. Dunnett's test was used for post hoc comparisons.

5-HT2C = biological target: T2, 5-HT2C (Homo sapiens, UniProt P28335); experiment: BRET Gq dissociation, 5-HT2C; format: cell-based; parameters: expressed in transfected cells; host or cells: HEK293T, transient; conditions: for Emax: read-out: 5-HT2C Gq Dissociation (BRET) EMAX ± SEM (%5-HT)
T2 sequence (P28335 33-458): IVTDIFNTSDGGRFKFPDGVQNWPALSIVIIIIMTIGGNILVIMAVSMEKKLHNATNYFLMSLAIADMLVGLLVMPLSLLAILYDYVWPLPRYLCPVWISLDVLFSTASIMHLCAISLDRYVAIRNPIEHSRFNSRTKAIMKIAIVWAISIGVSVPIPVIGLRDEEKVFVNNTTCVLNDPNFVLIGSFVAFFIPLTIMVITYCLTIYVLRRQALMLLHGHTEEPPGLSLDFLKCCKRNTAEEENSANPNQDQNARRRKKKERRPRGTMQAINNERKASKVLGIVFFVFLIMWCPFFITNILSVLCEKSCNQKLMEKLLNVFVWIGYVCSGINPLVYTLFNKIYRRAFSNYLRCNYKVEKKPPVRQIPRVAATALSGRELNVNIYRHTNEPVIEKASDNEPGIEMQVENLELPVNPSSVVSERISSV
Protocol: as §1

[3] = SC, except DOI and 25D-NBOMe IP

Row | Structure (SMILES) | Emax (5-HT2A [1]) [%] | Emax (5-HT2A [2]) [%] | Induction of the HTR in mice (in words) (male C57BL/6J mice) | Max HTR response during a 30-min assessment (maximum counts ÷ baseline response) (male C57BL/6J mice) | ED50 (male C57BL/6J mice) [mg/kg] | Emax (5-HT2C) [%] | EC50 (5-HT2A [1]; BRET, mean ± SEM) [nM] | 5-HT2B Gq Dissociation (BRET) EMAX ± SEM (%5-HT) (5-HT2B) | 5-HT2B Gq Dissociation (BRET) pEC50 ± SEM (5-HT2B) | EC50 (5-HT2A [2]; BRET, mean ± SEM) [nM] | 5-HT2C Gq Dissociation (BRET) EMAX ± SEM (%5-HT) (5-HT2C) | 5-HT2C Gq Dissociation (BRET) pEC50 ± SEM (5-HT2C) | also measured
1 | COc1cc(OC)c(OC)cc1CCNCc1cccc(I)c1 [(53), N-(3-iodobenzyl)-2-(2,4,5-trimethoxyphenyl)-ethan-1-amine] | 82.7 ± 5.4 | 50.1 ± 1.9 | failed to induce the HTR | 1.1-fold increase | > 30 | 91.5 ± 3.2 |  |  |  |  |  |  | EC50 (5-HT2B): 0.724 nM; Emax (5-HT2B; read-out: 5-HT2B Gq Dissociation (BRET) EMAX ± SEM (%5-HT)): 20.3 ± 2.8%; EC50 (5-HT2C): 15.1 nM
2 | COc1cc(OC)c(OC)cc1CCNCc1cccc2ccccc12 [(38)] | 74.9 ± 1.9 | 24.3 ± 1.2 | failed to induce a HTR | 1.0-fold increase | > 30 | 64.4 ± 2 | 1.62 | No activity | No activity | 5.5 |  |  | EC50 (5-HT2C; read-out: 5-HT2C Gq Dissociation (BRET) pEC50 ± SEM (converted)): 12.6 nM
3 | COc1cc(CCN)c(OC)cc1I [Compound 2C-I, reference compound] |  |  |  | 13.8-fold increase |  |  |  | 101.0 ± 2.1 %5-HT | 7.72 ± 0.07 |  | 106.9 ± 1.5 %5-HT | 9.34 ± 0.05 | 5-HT2A β-arrestin Emax (% 5-HT) (5-HT2A [1]; BRET, mean ± SEM): 74.3 ± 1.6 % 5-HT; 5-HT2A β-arrestin recruitment pEC50 (5-HT2A [1]; BRET, mean ± SEM): 8.25 ± 0.07; 5-HT2A Gq Emax (% 5-HT) (5-HT2A [2]; BRET, mean ± SEM): 93.4 ± 1.4 % 5-HT; 5-HT2A Gq dissociation pEC50 (5-HT2A [2]; BRET, mean ± SEM): 8.83 ± 0.05; HTR ED50 μmol/kg (95% CI) (male C57BL/6J mice; [3]): 2.42 (1.46-4.02) μmol/kg; HTR ED50 mg/kg (95% CI) (male C57BL/6J mice; [3]): 0.83 (0.50-1.38) mg/kg
4 | COc1cc(OC)c(OC)cc1CCNCc1ccccc1-c1cccs1 [(59), N-(2-(thiophen-2-yl)benzyl)-2-(2,4,5-trimethoxyphenyl)-ethan-1-amine] | 100 ± 3.5 | 34.9 ± 1.6 | lacked a HTR | 1.6-fold increase | > 30 |  | 8.51 | No activity | No Activity | 24 | No Activity | No Activity | 
